Test results published in publication PMC9986306, “Beyond CBD: Inhibitory effects of lesser studied phytocannabinoids on human voltage-gated sodium channels” (Frontiers in Physiology, 2023).
Marks after values point to notes of the source that are not given here.

How the values were obtained:
[1] = target: T1, human NaV1.1 channel (SCN1A, HEK293T cells) (Homo sapiens, UniProt P35498); assay: Planar patch-clamp, biophysical properties (activation, SSFI, recovery from SSFI); format: cell-based; settings: change vs vehicle DMSO at IC50 concentration (CBD 18.5 μM, CBGA 13.6 μM, CBDVA 50 μM)
T1 construct: expressed in transfected cells
Experimental: (§1) HEK293T cells stably expressing SCN1A or SCN2A and CHO cells stably expressing SCN8A or SCN9A were maintained as previously described ([Richards et al., 2018]; [Milligan et al., 2022]).
(§2) Patch-clamp recordings were made using a Patchliner® (Nanion Technologies, Munich, Germany) in the whole-cell configuration as previously described ([Richards et al., 2018]; [Milligan et al., 2022]). Briefly, cells were prepared in suspension at a density of 1 × 10^6-5 × 10^7 cells/mL. The external recording solution comprised (in mM): 140 NaCl, 4 KCl, 1 MgCl2, 2 CaCl2, 5 D-glucose, 10 HEPES, pH 7.4 with NaOH, ∼295 mOsm. The internal recording solution comprised (in mM): 50 CsCl, 60 CsF, 10 NaCl, 20 EGTA, 10 HEPES, pH 7.2 with CsOH, ∼285 mOsm. Medium single-hole planar NPC-16 chips with an average resistance of ∼2.5 MΩ were used. Chip and whole-cell capacitance were fully compensated, and 50% series resistance compensation applied. Recordings were acquired at 50 kHz with the low pass filter set to 10 kHz in PATCHMASTER (HEKA Instruments, NY, United States) and performed at 27°C. Offline analysis was performed using Microsoft Excel, MatLab R2019a (MathWorks) and GraphPad Prism 8 (Molecular Devices).
(§3) Voltage protocols were used, as previously described ([Richards et al., 2018]). Briefly, to study the voltage-dependence of activation, cells were held at −120 mV and depolarized to test potentials, in 5 mV increments, between −120 mV and +50 mV for 100 ms. To study steady-state fast inactivation, cells were held at conditioning pre-pulse potentials ranging from −120 mV to +30 mV in 5 mV increments from a holding potential of −120 mV and a test pulse at 5 mV for 20 ms. Recovery from fast inactivation was studied by pre-pulsing the cells to 0 mV from a holding potential of −120 mV for 50 ms, to fully inactivate channels. The voltage was then stepped back to the holding potential for variable interpulse intervals (ipi from 0 to 39 ms in 3 ms increments). To test channel availability, the voltage was stepped to 0 mV for 50 ms.
(§4) To examine the voltage-dependence of activation, normalized current-voltage (I-V) relationships were converted to conductance (G) using the following equation: G = I/(V−V r ) where Vr is the reversal potential for Na^+. The voltage-dependence of conductance and availability were normalized and fitted to a Boltzmann equation: G = 1/(1 + exp [(V−V 0.5)/a]), where a is the slope of the half-maximum, V is the potential of the given pulse, and V 0.5 is the potential for the half-maximal activation/inactivation. The time course of inactivation was fitted to a single exponential function I/Imax = I0+A*exp (-t-t0/τ)+C, where I0 is the non-inactivating component, Imax is the peak current, t is time, and A is the component for the time constant τ. Time constants were plotted against voltage and the data fitted with a decaying exponential equation Y = span*exp (−K*x)+plateau, where span is the starting point of the curve, K is the decay factor, plateau is the value the curve decays to, and x is time. To measure recovery from inactivation, normalized currents were plotted against ipi and data fitted with equation I/I max = 1-exp/(rc + x), where I max is maximal current; rc recovery rate constant; x is time. Peak current (I) was plotted as fractional recovery against the recovery period by normalizing to the maximum current (Imax) during the conditioning potentials.

[2] = target: T2, human NaV1.2 channel (SCN2A, HEK293T cells) (Homo sapiens, UniProt Q99250); assay: as above; format: cell-based; settings: change vs vehicle DMSO at IC50 concentration (CBD 18.4 μM, CBGA 14.7 μM, CBDVA 60 μM)
T2 construct: expressed in transfected cells
Experimental: as §1, §2, §3, §4

[3] = target: T3, human NaV1.6 channel (SCN8A, CHO cells) (Homo sapiens, UniProt Q9UQD0); assay: as above; format: cell-based; settings: change vs vehicle DMSO at IC50 concentration (CBD 16.6 μM, CBGA 12.0 μM, CBDVA 24.1 μM)
T3 construct: expressed in transfected cells
Experimental: as §1, §2, §3, §4

[4] = target: T4, human NaV1.7 channel (SCN9A, CHO cells) (Homo sapiens, UniProt Q15858); assay: as above; format: cell-based; settings: change vs vehicle DMSO at IC50 concentration (CBD 11.9 μM, CBGA 16.4 μM, CBDVA 60 μM)
T4 construct: expressed in transfected cells
Experimental: as §1, §2, §3, §4

[5] = test system: Scn1a+/− mouse model of DS; set-up: method as in Anderson et al., 2021b; settings: monotherapy, ref Anderson et al., 2021b; cited from earlier work
[6] = target: T1, human NaV1.1 channel (SCN1A, HEK293T cells); assay: Planar patch-clamp, inhibition of peak sodium current (IC50 protocol); format: cell-based; settings: mean ± SEM
Experimental: as §1, §2
(§5) To determine half-maximal inhibitory concentrations (IC50), cells were held at −80 mV, stepped to −120 mV for 200 ms followed by 50 ms test depolarization to 0 mV every 2 s for 30 s in the presence of vehicle control (DMSO). The cells were then exposed to an individual phytocannabinoid (CBD, CBGA, CBDVA, CBG, CBCA or CBC) at concentrations between 0.1 and 100 μM, sequentially for 5 min. Currents for individual cells were averaged over 24 s periods directly before application and following a 5 min exposure of compound. Leak subtraction was applied before normalization of current amplitude. Normalized mean data were fit to the Hill equation.

[7] = target: T2, human NaV1.2 channel (SCN2A, HEK293T cells); assay: as above; format: cell-based; settings: mean ± SEM
Experimental: as §1, §2, §5

[8] = target: T4, human NaV1.7 channel (SCN9A, CHO cells); assay: as above; format: cell-based; settings: mean ± SEM
Experimental: as §1, §2, §5

T3 sequence (Q9UQD0 whole entry): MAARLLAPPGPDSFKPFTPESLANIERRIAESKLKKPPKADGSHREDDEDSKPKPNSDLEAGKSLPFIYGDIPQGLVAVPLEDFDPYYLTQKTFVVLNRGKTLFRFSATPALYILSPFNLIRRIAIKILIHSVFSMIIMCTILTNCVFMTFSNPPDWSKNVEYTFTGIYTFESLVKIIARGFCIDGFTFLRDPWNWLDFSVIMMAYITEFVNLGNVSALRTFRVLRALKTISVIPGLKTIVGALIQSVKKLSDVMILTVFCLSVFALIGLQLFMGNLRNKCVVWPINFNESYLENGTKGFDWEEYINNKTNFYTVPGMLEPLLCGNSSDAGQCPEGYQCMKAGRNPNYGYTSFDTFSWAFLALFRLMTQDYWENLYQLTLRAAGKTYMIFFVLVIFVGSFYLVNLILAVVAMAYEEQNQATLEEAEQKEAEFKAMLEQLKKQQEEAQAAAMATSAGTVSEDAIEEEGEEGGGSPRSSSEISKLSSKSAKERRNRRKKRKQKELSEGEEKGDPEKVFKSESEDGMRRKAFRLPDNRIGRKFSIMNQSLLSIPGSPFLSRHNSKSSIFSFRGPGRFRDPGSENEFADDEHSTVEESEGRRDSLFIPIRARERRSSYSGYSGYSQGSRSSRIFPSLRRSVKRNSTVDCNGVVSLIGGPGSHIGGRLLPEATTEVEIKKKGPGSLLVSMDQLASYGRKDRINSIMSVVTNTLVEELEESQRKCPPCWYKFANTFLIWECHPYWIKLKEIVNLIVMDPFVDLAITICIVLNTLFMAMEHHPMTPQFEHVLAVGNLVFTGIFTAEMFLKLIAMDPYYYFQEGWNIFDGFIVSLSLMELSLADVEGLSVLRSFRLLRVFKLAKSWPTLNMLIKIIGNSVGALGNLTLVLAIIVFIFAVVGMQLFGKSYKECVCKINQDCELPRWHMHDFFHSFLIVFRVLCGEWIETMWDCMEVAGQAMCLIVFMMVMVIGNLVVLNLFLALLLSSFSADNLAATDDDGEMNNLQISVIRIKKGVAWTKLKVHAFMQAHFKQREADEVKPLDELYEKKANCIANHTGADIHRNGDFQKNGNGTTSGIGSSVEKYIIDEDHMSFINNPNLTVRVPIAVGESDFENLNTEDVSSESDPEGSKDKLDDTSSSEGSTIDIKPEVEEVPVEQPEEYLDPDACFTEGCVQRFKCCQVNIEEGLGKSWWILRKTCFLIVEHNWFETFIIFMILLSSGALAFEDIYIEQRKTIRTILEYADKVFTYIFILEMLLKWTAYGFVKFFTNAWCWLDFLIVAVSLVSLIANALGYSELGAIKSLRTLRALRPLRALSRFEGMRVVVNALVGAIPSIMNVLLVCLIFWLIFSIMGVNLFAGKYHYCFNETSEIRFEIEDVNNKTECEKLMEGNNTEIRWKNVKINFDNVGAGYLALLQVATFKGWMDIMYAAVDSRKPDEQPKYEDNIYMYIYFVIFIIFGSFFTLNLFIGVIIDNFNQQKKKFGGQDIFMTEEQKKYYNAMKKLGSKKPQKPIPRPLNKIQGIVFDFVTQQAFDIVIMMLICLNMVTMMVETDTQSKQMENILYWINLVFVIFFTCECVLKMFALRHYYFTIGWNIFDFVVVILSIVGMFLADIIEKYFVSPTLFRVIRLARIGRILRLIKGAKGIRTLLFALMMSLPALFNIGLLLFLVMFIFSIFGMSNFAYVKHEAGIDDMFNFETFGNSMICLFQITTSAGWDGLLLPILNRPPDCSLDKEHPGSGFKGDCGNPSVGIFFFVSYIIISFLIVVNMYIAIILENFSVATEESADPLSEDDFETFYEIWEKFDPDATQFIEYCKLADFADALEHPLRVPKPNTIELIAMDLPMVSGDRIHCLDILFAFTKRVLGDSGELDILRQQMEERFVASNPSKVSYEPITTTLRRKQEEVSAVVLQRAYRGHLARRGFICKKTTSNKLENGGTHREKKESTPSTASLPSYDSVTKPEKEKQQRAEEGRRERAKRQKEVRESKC
T2 sequence (Q99250 whole entry): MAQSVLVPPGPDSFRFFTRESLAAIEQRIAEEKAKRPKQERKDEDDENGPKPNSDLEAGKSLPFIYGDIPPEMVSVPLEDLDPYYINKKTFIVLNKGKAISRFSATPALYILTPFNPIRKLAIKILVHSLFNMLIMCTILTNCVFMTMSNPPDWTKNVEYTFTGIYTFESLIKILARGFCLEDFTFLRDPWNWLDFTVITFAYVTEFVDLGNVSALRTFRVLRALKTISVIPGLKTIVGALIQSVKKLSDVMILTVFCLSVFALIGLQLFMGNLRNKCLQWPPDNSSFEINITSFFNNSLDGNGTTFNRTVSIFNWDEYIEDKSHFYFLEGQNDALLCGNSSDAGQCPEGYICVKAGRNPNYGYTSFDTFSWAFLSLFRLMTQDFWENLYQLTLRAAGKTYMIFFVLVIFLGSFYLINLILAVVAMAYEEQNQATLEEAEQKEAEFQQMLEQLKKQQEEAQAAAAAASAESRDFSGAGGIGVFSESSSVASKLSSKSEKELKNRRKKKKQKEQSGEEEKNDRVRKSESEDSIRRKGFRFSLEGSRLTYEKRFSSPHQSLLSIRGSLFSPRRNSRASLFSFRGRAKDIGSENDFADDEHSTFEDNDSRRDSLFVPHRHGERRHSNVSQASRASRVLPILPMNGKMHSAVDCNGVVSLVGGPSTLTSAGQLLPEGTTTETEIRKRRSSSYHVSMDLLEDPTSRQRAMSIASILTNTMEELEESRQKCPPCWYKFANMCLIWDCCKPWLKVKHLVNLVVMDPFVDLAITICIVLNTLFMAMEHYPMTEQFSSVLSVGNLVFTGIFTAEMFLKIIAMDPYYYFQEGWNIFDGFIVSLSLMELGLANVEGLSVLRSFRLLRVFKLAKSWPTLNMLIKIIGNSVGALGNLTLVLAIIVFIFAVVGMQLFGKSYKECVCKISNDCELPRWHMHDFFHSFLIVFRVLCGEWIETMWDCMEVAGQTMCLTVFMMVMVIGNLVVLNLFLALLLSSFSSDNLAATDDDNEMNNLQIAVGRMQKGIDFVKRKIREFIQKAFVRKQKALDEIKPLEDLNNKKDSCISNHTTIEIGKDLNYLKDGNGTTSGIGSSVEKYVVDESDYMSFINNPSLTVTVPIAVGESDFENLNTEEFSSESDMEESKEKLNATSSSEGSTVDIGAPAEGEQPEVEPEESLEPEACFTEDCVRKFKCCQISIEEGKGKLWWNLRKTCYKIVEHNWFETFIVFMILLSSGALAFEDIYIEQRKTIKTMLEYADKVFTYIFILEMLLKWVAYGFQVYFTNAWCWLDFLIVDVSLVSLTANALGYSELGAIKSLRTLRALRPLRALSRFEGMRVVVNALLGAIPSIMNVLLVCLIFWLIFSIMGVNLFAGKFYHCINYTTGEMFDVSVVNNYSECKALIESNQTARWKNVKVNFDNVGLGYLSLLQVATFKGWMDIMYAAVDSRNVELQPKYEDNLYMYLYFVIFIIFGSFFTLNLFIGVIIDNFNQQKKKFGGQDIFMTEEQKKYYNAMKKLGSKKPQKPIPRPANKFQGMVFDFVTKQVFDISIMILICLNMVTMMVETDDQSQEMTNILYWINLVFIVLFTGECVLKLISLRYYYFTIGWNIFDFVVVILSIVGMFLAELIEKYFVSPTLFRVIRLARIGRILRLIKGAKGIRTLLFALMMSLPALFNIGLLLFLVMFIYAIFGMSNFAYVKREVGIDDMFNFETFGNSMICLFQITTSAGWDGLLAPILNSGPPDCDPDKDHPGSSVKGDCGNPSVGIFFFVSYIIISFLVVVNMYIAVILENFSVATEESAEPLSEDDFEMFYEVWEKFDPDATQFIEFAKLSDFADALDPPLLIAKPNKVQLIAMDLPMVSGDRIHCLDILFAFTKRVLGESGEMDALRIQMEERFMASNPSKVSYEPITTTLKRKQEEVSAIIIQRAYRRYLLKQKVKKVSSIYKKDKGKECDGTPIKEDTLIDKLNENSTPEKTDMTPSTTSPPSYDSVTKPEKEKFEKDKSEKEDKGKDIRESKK

For CCCCCc1cc(O)c(C/C=C(\C)CCC=C(C)C)c(O)c1C(=O)O [CBGA, cannabigerolic acid], the “Inactivation △ V0.5 inact” value ([1]; SSFI) was 1.0 ± 1.29 mV, the “Activation △ Slope factor” value [1] was 3.1 ± 1.7 and the “Activation △ V0.5 act” value [1] was 3.9 ± 1.2** mV. For the same compound, the “Inactivation △ τinact SSFI at 5 mV” value [1] was 0.4 ± 0.1*, the “Inactivation △ V0.5 inact” value ([2]; SSFI) was −3.0 ± 1.5 mV and the “Inactivation △ slope factor” value ([2]; SSFI) was 2.5 ± 0.8**. The “Activation △ Slope factor” value [2] was 1.9 ± 1.0, the “Activation △ V0.5 act” value [2] was 1.8 ± 2.3 mV and the “Inactivation △ τinact SSFI at 5 mV” value [2] was 0.08 ± 0.1. For the same compound, the “Inactivation △ V0.5 inact” value ([3]; SSFI) was −0.5 ± 2.4 mV, the “Inactivation △ slope factor” value ([3]; SSFI) was 1.1 ± 0.2** and the “Activation △ Slope factor” value [3] was −0.4 ± 0.3. For the same compound, the “Activation △ V0.5 act” value [3] was 0.1 ± 1.6 mV, the “Inactivation △ τinact SSFI at 5 mV” value [3] was 0.2 ± 0.2 and the “Inactivation △ V0.5 inact” value ([4]; SSFI) was −5.5 ± 2.1* mV. The “Inactivation △ slope factor” value ([4]; SSFI) was 1.3 ± 0.5*, the “Activation △ Slope factor” value [4] was 1.1 ± 0.2*** and the “Activation △ V0.5 act” value [4] was 4.6 ± 1.7* mV. For the same compound, the “Inactivation △ τinact SSFI at 5 mV” value [4] was 0.3 ± 0.06***, the “Effect on spontaneous seizures” value [5] was “proconvulsive effects” and the “Slope (Hill slope coefficient)” value ([6]; NaV1.1 concentration-response) was 2.6 ± 0.5. For the same compound, the IC50 ([6]; NaV1.1 peak current, 0.1–100 µM, 5 min exposure) was 13.6 ± 1.1 µM, the “Slope (Hill slope coefficient)” value ([7]; NaV1.2 concentration-response) was 2.2 ± 0.4 and the IC50 ([7]; NaV1.2 peak current, 0.1–100 µM, 5 min exposure) was 14.7 ± 1.1 µM. For the same compound, the “Slope (Hill slope coefficient)” value ([8]; NaV1.7 concentration-response) was 2.5 ± 0.4 and the IC50 ([8]; NaV1.7 peak current, 0.1–100 µM, 5 min exposure) was 16.4 ± 1.1 µM.
